Consider eleven compounds from patent publication US8012995B1, “Pharmaceutically active sulfonamide derivatives” (Merck Serono SA, priority 1999, dated 2011).

Assay [1] has as its system Hlr c-Jun HeLa cells. Put plainly: C-Jun reporter assay (Dual-Luciferase). To be noted: Homo sapiens, Hlr c-Jun HeLa cells transfected with pMEKK1. The assay is classed as cell-based. The protocol:
Hlr c-Jun HeLa cells are cultured in DMEM High Glc supplemented with 10% FCS (Sigma), 2 mM Glutamine (Gibco), P/S, Hygromycin b 100 μg/mL and G418 250 μg/mL
The cell suspension are diluted with medium to give about 3.5×10^6 cells/mL and 1 mL of cell suspension are put onto 2 10 cm culture dishes containing 9 mL of culture medium.
• Control: 0.2 μg pTK Renilla, 5.8 μg pBluescript KS, 500 μl OPTIMEM (GIBCO), 18 μl Fugene 6 • Induced: 0.1 μg pMEKK1, 0.2 μg pTK Renilla, 5.7 μg pBluescript KS, 500 μl OPTIMEM (GIBCO), 18 μl Fugene 6 30′ RT
The transfection mixture is added to the plated cells. The plates are incubated over night at 37° C. in a humidified atmosphere of 5% CO2 in air
A 96 wells plate containing 100 μl of culture medium per well is prepared
Negative control (vehicle): 2 μl of DMSO is added to the 100 μl (in triplicate).
Compound: 2 μl of Hit compound stock dilution are added to the 100 μl (in triplicate).
The transfected cells are trypsinised and ressuspend in 12 mL of culture medium.
100 μl of the dilution are added to each of the 96 wells plate.
The plate is incubated over night at 37° C. in a humidified atmosphere of 5% CO2 in air
Dual-Luciferase™ Reporter Assay System (Promega)
The medium is removed from the plate and the cells washed two times with 100 μl PBS Completely remove the rinse solution before applying PLB reagent. Dispense into each culture well […] of 1×PLB. Place the culture plates on a rocking platform or orbital shaker with gentle
rocking/shaking to ensure complete and even coverage of the cell monolayer with 1×PLB. Rock the culture plates at room temperature for 15 minutes. Transfer 20 μl of the lysate into a white opaque 96 wells plate. Read in a luminometer.
• Inject 50 μl of Luciferase Assay Reagent II wait 5″, read 10″ • Inject 50 μl of Stop & Glo® Reagent wait 5″, read 10″ Check RLU Luciferase/RLU Renilla *1000

Assay [2] has as its system IL-2 release by PMA+Iono-stimulated Jurkat cells. Briefly: IL-2 release assay (ELISA). The assay is classed as cell-based. To be noted: Homo sapiens, PMA+Ionomycine-stimulated Jurkat cells, 24 hours, read-out: % Inhibition of IL2 Production @3 uM. The protocol:
Jurkat cells, a human T cell leukemia cell line (American Type Culture Collection # TIB 152) were cultured in RPMI 1640 medium (Gibco, BRL) supplemented with 10% of […] FCS, Glutamine and Penstrep. The cell suspension in the medium is diluted to give 2.10^6 cells/mL. The cells were plated (2.10^5 cells/well) on a 96-well plate containing different concentration of test compound (final concentration of compounds, 10, 3, 1, […], 0.1 μM). This mixture is incubated 30 minutes at 37° C. in a humidified CO2 atmosphere. Cells were then treated with 10 ul PMA+Ionomycine (0.1 μM and 1 μM final concentration) in all wells except negative control. In wells without compounds, 10 μl of RPMI 2% DMSO (=0.1% final) is added. Cells are incubated 24 hours at 37° C. and then the supernatant harvested (freeze at −20° C. if not used the same day) prior to performing IL-2 ELISA test on the supernatant.
IL-2 release into the medium by PMA+Iono-stimulated Jurkat cells, in presence or absence of test compounds is assayed by ELISA. Following the procedure described below
Transfer 100 μl capture antibody diluted in PBS at 5 μg/mL into a 96 well ELISA plate and incubate overnight at room temperature.
Aspirate each well and wash 3 times with Wash buffer. After the last wash, damp the plate.
1. Saturate with 200 μl PBS-10% FCS. Incubate 1 hour at room temperature.
2. Repeat the wash step 2.
• 1. Add 100 μl of sample or standard ([…]) and incubate 2 hours at room temperature. • 2. Wash 3 times. • 3. Add 100 μl of biotinylated anti-human IL-2 at 12.5 ng/mL. Incubate 2 hours at room temperature. • 4. Wash 3 times. • 5. Add 100 μl streptavidin-HRP (Zymed #43-4323) at 1:10′000. Incubate 30 minutes at room temperature. • 6. Wash 3 times • 7. Add 100 μl substrate solution (citric acid/Na2HPO4 (1:1)+H2O2 1:2000+OPD). Incubate 20-30 minutes at room temperature. • 8. Add 50 μl of stop solution to each well. • 9. Determine optical density using a microliter plate reader set to 450 nm with correction at 570 nm.
(In general: In an ELISA, binding on a coated surface is turned into a signal by an enzyme label.)

Assay [3] has as its target ERK2 (Homo sapiens, UniProt P28482). Briefly: ERK2 in vitro kinase assay (SPA, myelin basic protein substrate). The assay is classed as biochemical. The note with it: amount necessary to achieve 50% inhibition. The protocol:
(§1) JNK 2 and 3 in vitro assays: JNK3 and/or 2 assays are performed in 96 well MTT plates, by incubation of 0.5 μg of recombinant pre-activated GST-JNK or GST-JNK2 with 1 μg of recombinant, biotinylated GST-c-Jun and 2 μM ^33γ-ATP (2 nCi/μl), in the to presence or absence of sulfonamide inhibitors if formula I and in a reaction volume of 50 μl containing 50 mM Tris-HCl, pH 8.0; 10 mM MgCl2; 1 mM Dithiothreitol, and 100 μM NaVO4. The incubation is performed for 120 min. at R.T and stopped upon addition of 200 μl of a solution containing 250 μg of Streptavidine-coated SPA beads (Amersham, Inc.)^•, 5 mM EDTA, 0.1% Triton X-100 and 50 μM ATP, in phosphate saline buffer. After incubation for 60 minutes at RT, beads are sedimented by centrifugation at 1500×g for 5 minutes, resuspended in 200 μl of PBS containing 5 mM EDTA, 0.1% Triton X-100 and 50 μM ATP and the radioactivity measured in a scintillation β counter, following sedimentation of the beads as described above. By substituting GST-c Jun for biotinylated GST-1ATF2 or myelin basic protein, this assay can be used to measure inhibition of preactivated p38 and ERK MAP Kinases, respectively.
(§2) The values indicated in respect of JNK2 and 3, p38 and ERK2 refer to the IC50 (μM), i.e. the amount necessary to achieve 50% inhibition of said target (e.g. JNK2). From the above table it could be derived that said test compounds according to formula I do have a significant effect both on JNK2 and 3, but virtually no effect onto p38 and ERK2, thus delivering a quite selective inhibitory effect.

For assay [4], the target named is JNK2 (Homo sapiens, UniProt P45984). Briefly: JNK2 in vitro assay (SPA, GST-c-Jun phosphorylation). The assay is classed as biochemical. The note with it: amount necessary to achieve 50% inhibition, GST-c-Jun substrate. The protocol: as §1, §2
JNK2, sequence (P45984 whole entry, species assumed): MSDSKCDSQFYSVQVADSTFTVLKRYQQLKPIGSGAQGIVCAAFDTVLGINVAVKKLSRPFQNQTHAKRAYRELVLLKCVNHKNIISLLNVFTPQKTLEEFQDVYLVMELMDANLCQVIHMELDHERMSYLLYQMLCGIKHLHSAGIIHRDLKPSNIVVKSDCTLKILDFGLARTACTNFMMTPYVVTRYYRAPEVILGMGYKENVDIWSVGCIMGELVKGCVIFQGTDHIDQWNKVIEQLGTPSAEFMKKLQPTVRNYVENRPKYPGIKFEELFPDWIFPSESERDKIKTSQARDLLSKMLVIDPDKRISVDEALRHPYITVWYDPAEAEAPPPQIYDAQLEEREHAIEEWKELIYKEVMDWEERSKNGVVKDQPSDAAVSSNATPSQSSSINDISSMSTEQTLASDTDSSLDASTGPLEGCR
Assay [5] concerns the target p38 (Homo sapiens, UniProt Q16539). Briefly: p38 in vitro kinase assay (SPA, GST-ATF2 substrate). The assay is classed as biochemical. The note with it: amount necessary to achieve 50% inhibition. How it is done: as §1, §2
Assay [6] has as its target JNK3 (Homo sapiens, UniProt P53779). Put plainly: JNK3 in vitro assay (SPA, GST-c-Jun phosphorylation). The assay is classed as biochemical. To be noted: amount necessary to achieve 50% inhibition, GST-c-Jun substrate. The protocol:
as §1, §2

ERK2, sequence (P28482 whole entry, species assumed): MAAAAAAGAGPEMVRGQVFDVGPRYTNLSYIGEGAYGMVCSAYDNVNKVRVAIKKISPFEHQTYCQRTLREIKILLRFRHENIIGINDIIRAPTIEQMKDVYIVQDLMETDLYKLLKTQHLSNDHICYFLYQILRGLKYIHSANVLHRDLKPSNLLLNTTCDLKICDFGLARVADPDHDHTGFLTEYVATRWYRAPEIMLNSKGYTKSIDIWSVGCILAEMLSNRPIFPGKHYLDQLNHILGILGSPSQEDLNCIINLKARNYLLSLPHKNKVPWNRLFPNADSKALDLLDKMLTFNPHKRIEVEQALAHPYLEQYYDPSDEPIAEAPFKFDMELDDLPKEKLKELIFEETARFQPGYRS
JNK3, sequence (P53779 whole entry, species assumed): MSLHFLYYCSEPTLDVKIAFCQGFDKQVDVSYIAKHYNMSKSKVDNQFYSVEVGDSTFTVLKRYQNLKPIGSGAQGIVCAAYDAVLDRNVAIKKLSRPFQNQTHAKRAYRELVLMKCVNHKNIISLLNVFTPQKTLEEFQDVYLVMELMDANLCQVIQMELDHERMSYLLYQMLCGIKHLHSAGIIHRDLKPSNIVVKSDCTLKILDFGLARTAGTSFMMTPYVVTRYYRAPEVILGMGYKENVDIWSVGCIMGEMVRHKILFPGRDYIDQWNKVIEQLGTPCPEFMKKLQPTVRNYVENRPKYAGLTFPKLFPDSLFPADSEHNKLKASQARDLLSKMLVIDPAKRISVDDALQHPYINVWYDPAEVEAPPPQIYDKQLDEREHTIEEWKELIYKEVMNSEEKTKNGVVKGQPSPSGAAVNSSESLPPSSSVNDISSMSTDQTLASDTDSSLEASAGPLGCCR
p38, sequence (Q16539 whole entry): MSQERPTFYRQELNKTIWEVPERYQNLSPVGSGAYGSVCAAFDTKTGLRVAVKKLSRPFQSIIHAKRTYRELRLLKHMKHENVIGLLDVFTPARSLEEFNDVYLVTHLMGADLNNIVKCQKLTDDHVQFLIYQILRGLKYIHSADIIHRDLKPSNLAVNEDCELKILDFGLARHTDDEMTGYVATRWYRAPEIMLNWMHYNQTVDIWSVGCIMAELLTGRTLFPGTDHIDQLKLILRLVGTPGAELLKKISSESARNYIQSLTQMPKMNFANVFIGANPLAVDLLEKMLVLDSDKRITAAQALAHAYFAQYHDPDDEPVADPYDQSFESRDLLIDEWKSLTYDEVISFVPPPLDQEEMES

What is called inhibition is how much of the control response was suppressed. The IC50 is the midpoint of a concentration-inhibition curve. A lower IC50 goes with greater potency in that assay. As for `O=C(NCc1ccc(S(=O)(=O)N2CCC(Nc3ccccc3)CC2)s1)c1ccc(Cl)cc1` [Example 86, N-({5-[(4-anilinopiperidin-1-yl)sulfonyl]thien-2-yl}methyl)-4-chlorobenzamide], the inhibition at 10 µM in assay [1] was more than 30%. For the same compound, the inhibition at 3 µM in assay [2] was more than 30%. Also, the IC50 in assay [3] was more than 30000 nM; in assay [4] it was 1050 nM; in assay [5] it was more than 30000 nM; in assay [6], 800 nM.
In the case of `O=C(NCc1ccc(S(=O)(=O)N2CCC(Nc3ccc(Cl)cc3)CC2)s1)c1ccc(Cl)cc1` [Example 120, 4-chloro-N-[(5-{[4-(4-chloroanilino)piperidin-1-yl]sulfonyl}thien-2-yl)methyl]benzamide], in assay [1], the inhibition at 10 µM was more than 30%. Also, in assay [2], the inhibition at 3 µM is more than 30%. The half-inhibitory concentration (IC50) was more than 30000 nM in assay [3], 560 nM in assay [4], more than 30000 nM in assay [5] and 400 nM in assay [6].
As for `COC(=O)c1cccc(NC2CCN(S(=O)(=O)c3ccc(CNC(=O)c4ccc([N+](=O)[O-])cc4)s3)CC2)c1` [Example 211, methyl 3-{[1-({5-[({4-nitrobenzoyl}amino)methyl]thien-2-yl}sulfonyl)piperidin-4-yl]amino}benzoate], the inhibition at 10 µM in assay [1] is more than 30%. Also, in assay [2], the inhibition at 3 µM was more than 30%. In addition, the IC50 was more than 30000 nM in assay [3], 390 nM in assay [4], more than 30000 nM in assay [5] and 270 nM in assay [6].
Consider `O=C(NCc1ccc(S(=O)(=O)N2CCC(C(=O)c3ccc(F)cc3F)CC2)s1)c1ccc(Cl)cc1` [Example 37, 4-chloro-N-[(5-{[4-(2,4-difluorobenzoyl)piperidin-1-yl]sulfonyl}thien-2-yl)methyl]benzamide], for which the inhibition at 10 µM in assay [1] was more than 30%. Besides, in assay [2], the inhibition at 3 µM is more than 30%. In addition, the IC50 in assay [3] is more than 30000 nM; in assay [4], 1190 nM; in assay [5], more than 30000 nM; in assay [6], 680 nM.
In the case of `O=C(NCc1ccc(S(=O)(=O)N2CCN(C(=O)c3cccc4ccccc34)CC2)s1)c1ccc(Cl)cc1` [Example 168, 4-chloro-N-[(5-{[4-(1-naphthoyl)piperazin-1-yl]sulfonyl}thien-2-yl)methyl]benzamide], the inhibition at 10 µM in assay [1] was more than 30%. The inhibition at 3 µM in assay [2] was more than 30%. The IC50 is more than 30000 nM in assay [3], 1200 nM in assay [4], more than 30000 nM in assay [5] and 890 nM in assay [6].
`O=C(NCc1ccc(S(=O)(=O)N2CCCN(C(=O)Cc3ccccc3)CC2)s1)c1ccc(Cl)cc1` [Example 84, 4-chloro-N-[(5-{[4-(phenylacetyl)-1,4-diazepan-1-yl]sulfonyl}thien-2-yl)methyl]benzamide] showed an inhibition at 10 µM in assay [1] of more than 30%. Besides, in assay [2], the inhibition at 3 µM was more than 30%. For the same compound, the IC50 was more than 30000 nM in assay [3], 1300 nM in assay [4], more than 30000 nM in assay [5] and 860 nM in assay [6].
`NS(=O)(=O)c1cccc(NC2CCN(S(=O)(=O)c3ccc(CNC(=O)c4ccc(Cl)cc4)s3)CC2)c1` [Example 155, N-{[5-({4-[3-(aminosulfonyl)anilino]piperidin-1-yl}sulfonyl)thien-2-yl]methyl}-4-chlorobenzamide]: in assay [1], the inhibition at 10 µM is more than 30%. In addition, the inhibition at 3 µM in assay [2] is more than 30%. Besides, the IC50 is more than 30000 nM in assay [3], 500 nM in assay [4], more than 30000 nM in assay [5] and 530 nM in assay [6].
For `O=C(NCc1ccc(S(=O)(=O)N2CCC(Nc3cccc(S(=O)(=O)CCO)c3)CC2)s1)c1ccc(Cl)cc1` [Example 131, 4-chloro-N-({5-[(4-{3-[(2-hydroxyethyl)sulfonyl]-anilino}piperidin-1-yl)sulfonyl]thien-2-yl}methyl)-benzamide], in assay [1], the inhibition at 10 µM was more than 30%. Further, in assay [2], the inhibition at 3 µM is more than 30%. The IC50 was more than 30000 nM in assay [3], 2230 nM in assay [4], more than 30000 nM in assay [5] and 710 nM in assay [6].
Turning to `COc1cccc(C(=O)NCc2ccc(S(=O)(=O)N3CCC(Nc4ccccc4[N+](=O)[O-])CC3)s2)c1` [Example 285, N-({5-[(4-{2-nitroanilino}piperidin-1-yl)sulfonyl]thien-2-yl}methyl)-3-methoxybenzamide], the inhibition at 10 µM in assay [1] was more than 30%. The inhibition at 3 µM in assay [2] was more than 30%. For the same compound, the IC50 in assay [3] is more than 30000 nM; in assay [4], 230 nM; in assay [5], more than 30000 nM; in assay [6], 190 nM.
As to `O=C(NCc1ccc(S(=O)(=O)N2CCC(n3cnc4ccccc43)CC2)s1)c1ccc(Cl)cc1` [Example 109, N-[(5-{[4-(1H-benzimidazol-1-yl)piperidin-1-yl]sulfonyl}thien-2-yl)methyl]-4-chlorobenzamide], the inhibition at 10 µM in assay [1] was more than 30%. Further, in assay [2], the inhibition at 3 µM was more than 30%. Moreover, the 50% inhibitory concentration (IC50) in assay [3] is more than 30000 nM; in assay [4] it was 590 nM; in assay [5] it was more than 30000 nM; in assay [6] it was 230 nM.
In assay [1], `O=C(NCc1ccc(S(=O)(=O)N2CCC(n3nnc4ccccc43)CC2)s1)c1ccc(Cl)cc1` [Example 91, N-[(5-{[4-(1H-1,2,3-benzotriazol-1-yl)piperidin-1-yl]sulfonyl}thien-2-yl)methyl]-4-chlorobenzamide] came in with an inhibition at 10 µM of more than 30%. Further, in assay [2], the inhibition at 3 µM was more than 30%. The concentration for half-maximal inhibition (IC50) is more than 30000 nM in assay [3], 640 nM in assay [4], more than 30000 nM in assay [5] and 150 nM in assay [6].
